For this data set, the system named is salmonella of TA1535. The experiment in a line: Mutation test (Ames test), plate method. It is filed as cell-based. As to conditions: strain TA1535, plate method, under metabolic activity condition, 625 to 10,000 micro gram/plate, maximum number of colonies divided by colonies in control solvent, tested on the TMPTA monomer of each example. An excerpt:
One time absorption refinement treatment is effective but multiple time absorption refinement treatments are preferable to improve the removal effect of the impurities. A number of methods for use in the present invention of measuring the safety of the radical polymerizable monomer can be used. Ames test (mutagen test) is employed in the present invention.
Ames test is a test in which germs are used. The strain among salmonellas used in the test is histidine auxotroph (his−), which cannot synthesize histidine. In the test, the number of colonies of recoveries from histidine auxotroph (his−) to (his+) which can synthesize histidine again as a result of a test material reacting with the strain is counted to determine the mutation property of the material.
Currently, among these strains, TA1535, TA1537, TA100, TA98 or WP2uvrA—are generally used. When TA1535 is used, radical polymerizable monomers in the market are frequently positive. Therefore, TA1535 test is employed in the present invention.
“Mutation test in Ordinance on Safety and Hygiene—Guideline and GLP— (published by Japan industrial Safety & Health Association)” is referred to with regard to the specific test method.
A mutation test (Ames test) is employed to check the safety in the present invention.
A plate method is adopted as the test method in the present invention.
TA1535 is used as the strain and the test is conducted under the condition of metabolic activity.
Add 250 mg of dimethylsulfoxide (DIMSO) to 250 mg of a radical polymerizable monomer having at least 3 functional groups with no charge transport structure followed by ultrasonic treatment for one minute to prepare a clear solution for the test.
5 kinds of densities (625 micro gram/plate, 1,250 micro gram/plate, 2,500 micro gram/plate, 5,000 micro gram/plate, and 10,000 micro gram/plate) of the radical polymerizable monomer having at least 3 functional groups with no charge transport structure are used. Among these, the quotient (referred to as “colony increase multiple” in the present invention) obtained by dividing the maximum number of the colonies with the number of colonies in the control solvent is used for comparison. The smaller the quotient, the safer the test sample.
For orientation: In the Ames test, an excess of revertant colonies over the control signals mutagenicity.

Consider `C=CC(=O)OCC(CC)(COC(=O)C=C)COC(=O)C=C` [Comp. 1, trimethylol propane triacrylate], for which the Colony increase multiple is 3.4. Under “listed as Comparative Example 1”, this compound registered a Colony increase multiple of 3.4.

`C=CC(=O)OCC(CC)(COC(=O)C=C)COC(=O)C=C` [Comp. 2, trimethylol propane triacrylate] had a Colony increase multiple of 2.7. Besides, the Colony increase multiple (listed as Comparative Example 2) turned out to be 2.7.

`C=CC(=O)OCC(CC)(COC(=O)C=C)COC(=O)C=C` [Comp. 3, trimethylol propane triacrylate] yielded a Colony increase multiple of 2.7. Where the note is “listed as Comparative Example 3”, the Colony increase multiple is 2.7.

For `C=CC(=O)OCC(CC)(COC(=O)C=C)COC(=O)C=C` [Ex. 1, trimethylol propane triacrylate], the Colony increase multiple was 1.2. Besides, the Colony increase multiple (listed as Example 1) stood at 1.2.

In turn, `C=CC(=O)OCC(CC)(COC(=O)C=C)COC(=O)C=C` [Ex. 2, trimethylol propane triacrylate] registered a Colony increase multiple of 1.1. The compound also gave a Colony increase multiple (listed as Example 2) of 1.1.

On to `C=CC(=O)OCC(CC)(COC(=O)C=C)COC(=O)C=C` [Ex. 3, trimethylol propane triacrylate], for which the Colony increase multiple stood at 1.2. The same compound registered a Colony increase multiple (listed as Example 3) of 1.2.

`C=CC(=O)OCC(CC)(COC(=O)C=C)COC(=O)C=C` [Ex. 4, trimethylol propane triacrylate] showed a Colony increase multiple of 1.1. This compound also registered a Colony increase multiple (listed as Example 4) of 1.1.

With `C=CC(=O)OCC(CC)(COC(=O)C=C)COC(=O)C=C` [Ex. 5, trimethylol propane triacrylate], the Colony increase multiple is reported as 1.4. Besides, the Colony increase multiple (listed as Example 5) is reported as 1.4.

The compound `C=CC(=O)OCC(CC)(COC(=O)C=C)COC(=O)C=C` [Ex. 6, trimethylol propane triacrylate] came in with a Colony increase multiple of 2.5. The Colony increase multiple (listed as Example 6) was determined as 2.5.

In turn, `C=CC(=O)OCC(CC)(COC(=O)C=C)COC(=O)C=C` [Ex. 7, trimethylol propane triacrylate] showed a Colony increase multiple of 1.9. Also, the Colony increase multiple (listed as Example 7) is listed as 1.9.

`C=CC(=O)OCC(CC)(COC(=O)C=C)COC(=O)C=C` [Ex. 8, trimethylol propane triacrylate] gave a Colony increase multiple of 2.6. This compound also displayed a Colony increase multiple (listed as Example 8) of 2.6.

As to `C=CC(=O)OCC(CC)(COC(=O)C=C)COC(=O)C=C` [Ex. 9, trimethylol propane triacrylate], the Colony increase multiple was 2.1. This compound yielded a Colony increase multiple (listed as Example 9) of 2.1.

With `C=CC(=O)OCC(CC)(COC(=O)C=C)COC(=O)C=C` [Ex. 10, trimethylol propane triacrylate], the Colony increase multiple is reported as 1.9. The compound further yielded a Colony increase multiple (listed as Example 10) of 1.9.

Regarding `C=CC(=O)OCC(CC)(COC(=O)C=C)COC(=O)C=C` [Ex. 11, trimethylol propane triacrylate], the Colony increase multiple is recorded as 1.4. The compound also had a Colony increase multiple (listed as Example 11) of 1.4.

With `C=CC(=O)OCC(CC)(COC(=O)C=C)COC(=O)C=C` [Ex. 12, trimethylol propane triacrylate], the Colony increase multiple is given as 1.4. This compound also returned a Colony increase multiple (listed as Example 12) of 1.4.

The values are drawn from patent US8343698B2, “Photoreceptor, method of manufacturing same, image formation method, image forming apparatus, and process cartridge” (Ricoh Company, Ltd., priority 2009, dated 2013).
